The source of these data is patent US7101890B2, “Benzazepine derivatives, drugs containing these and use of the same for producing drugs” (priority 1996, dated 2006).

Where only a bound is given, the exact number is not on record here.

acetylcholine esterase, sequence (P06276 29-602): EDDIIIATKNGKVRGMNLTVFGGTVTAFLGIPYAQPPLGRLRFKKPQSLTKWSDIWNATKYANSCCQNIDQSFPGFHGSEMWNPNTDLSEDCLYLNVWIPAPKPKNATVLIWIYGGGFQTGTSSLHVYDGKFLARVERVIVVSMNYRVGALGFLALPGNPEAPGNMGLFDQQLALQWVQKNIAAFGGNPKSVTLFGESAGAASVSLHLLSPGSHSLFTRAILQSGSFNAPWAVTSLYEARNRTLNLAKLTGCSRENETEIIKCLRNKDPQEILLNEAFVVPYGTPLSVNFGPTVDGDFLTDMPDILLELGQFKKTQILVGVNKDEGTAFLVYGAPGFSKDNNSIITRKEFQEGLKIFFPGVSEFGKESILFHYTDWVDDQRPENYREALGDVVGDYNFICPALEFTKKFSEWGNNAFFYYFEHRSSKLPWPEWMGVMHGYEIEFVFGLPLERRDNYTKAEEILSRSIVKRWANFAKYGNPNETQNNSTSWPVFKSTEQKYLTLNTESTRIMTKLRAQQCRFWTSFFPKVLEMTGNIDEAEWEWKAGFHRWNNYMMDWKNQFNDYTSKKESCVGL

One series addresses acetylcholine esterase (Homo sapiens, UniProt P06276). Briefly: Inhibition of acetylcholine esterase, modified method of Ellmann, human serum. The following applies: ACHE inhibition; human serum from a pool of 10 test subjects; 37° C., pH 7.8; compounds of general formula (I). Format: biochemical.
Protocol: The values were given as a percentage of the comparison sample and the inhibiting concentration (IC^50) was calculated from the course of the curve.
Turning to `COc1cc(Br)c2c3c1OC1CC(O)C=CC31CCN(CC#N)C2` (racemic) [Substance 52], the “IC50 in μMol” value is reported as “insol”. On the same count and under the same terms, in the case of `CCCCCCN1CCC23C=CC(O)CC2Oc2c(OC)cc(Br)c(c23)C1` (racemic) [Substance 49] it was “insol”; in that of `COc1ccc2c3c1O[C@H]1CC(=NO)C=C[C@@]31CCN(C)C2` [Substance 76, narwedine Oxime], “insol”.

In the case of `COc1ccc2c3c1OC1CC(=NN(C)C)C=CC31CCN(C)C2` (racemic) [Substance 82], the “IC50 in μMol” value is recorded as “insol”.

`COC(=O)N1CCC23C=CC(O)CC2Oc2c(OC)cc(Br)c(c23)C1` (racemic) [Substance 62]: the “IC50 in μMol” value is recorded as “insol”. Regarding `COc1ccc2c3c1OC1CC(=NO)C=CC31CCN(C)C2` (single isomer, unassigned) [Substance 77, narwedine Oxime], the “IC50 in μMol” value was “insol”. Still for that read-out and setting: in the case of `COc1ccc2c3c1OC1CC(O)C=CC31CC[N+](C)([O-])C2` (single isomer, unassigned; (-)) [Substance 98, (−)-Galanthamine-N-oxide] it was “insol”; in that of `COC(=O)CCC(=O)N1CCC23C=CC(O)CC2Oc2c(OC)cc(Br)c(c23)C1` (racemic) [Substance 61], “insol”. In the case of `C#CCN1CCC23C=CC(O)CC2Oc2c(OC)cc(Br)c(c23)C1` (racemic) [Substance 50], the “IC50 in μMol” value was “insol”. Still for that read-out and setting: the entry for `COc1ccc2c3c1OC1CC(=NNC(N)=O)C=CC31CCN(C)C2` (racemic) [Substance 87] is “insol”.

The same series, now with this note: ACHE inhibition; human serum from a pool of 10 test subjects; 37° C., pH 7.8; compounds of general formula (I); read-out: IC50 in μMol.
On to `CCCCNC(=S)OC1C=CC23CCN(C)Cc4ccc(OC)c(c42)OC3C1` (single isomer, unassigned; (+)) [Substance 24, (+)-Galanthamin-n-butylthiocarbamate], for which the IC50 is 85 µM.

Staying with this series, now noted: ACHE inhibition; human serum pool; compounds of formula (II); read-out: IC50.
Turning to `COc1ccc2c(c1O)C13C=C[C@@H](O)CC1N(CC3)C2` (stereo partly shown) [Substance 115, 35-4,4a-dihydro-9-methoxy-10-hydroxy (3H,6H) (5,10b) ethanophenanthridine-3-ol], the IC50 is over 150 µM.

Test system in a further series: not given
Assay: not given
Conditions: not given
With `O=[N+]([O-])c1ccc(N2CC3CC2CN3Cc2ccccc2)cc1` (stereo not shown), the melting point is 170 to 173 °C. The compound `Clc1ccc(N2CC3CC2CN3)cc1` (stereo not shown) returned a melting point of 120 to 130 °C. Consider `Cc1ccc(N2CC3CC2CN3)cc1` (stereo not shown), for which the melting point was 130 to 140 °C. On to `COc1cc(Br)c2c3c1OC1C[C@@H](O)C=CC31CCN(C)C2=O` (mixture of isomers), for which the melting point lay within 188 to 189 °C. Same read-out and setting: the figure for `c1ccc(N2CC3CC2CN3)cc1` (stereo not shown) is 120 to 130 °C; for `Fc1ccc(N2CC3CC2CN3)cc1` (stereo not shown) it is 120 to 130 °C; for `O=[N+]([O-])c1ccccc1N1CC2CC1CN2Cc1ccccc1` (stereo not shown) it is 107 to 108 °C.
